Source: paper PMC5540273, “Progress towards a public chemogenomic set for protein kinases and a call for contributions” (PLoS ONE, 2017)

Experiments:
Assay in all cases: KINOMEscan competition binding
[1] = target: CDC2L1 (Homo sapiens, UniProt P21127); conditions: read-out: %Inh CDC2L1
[2] = target: T1, GRK2 (Homo sapiens, UniProt P25098); conditions: read-out: %Inh GRK2
T1 sequence (P25098 1-689): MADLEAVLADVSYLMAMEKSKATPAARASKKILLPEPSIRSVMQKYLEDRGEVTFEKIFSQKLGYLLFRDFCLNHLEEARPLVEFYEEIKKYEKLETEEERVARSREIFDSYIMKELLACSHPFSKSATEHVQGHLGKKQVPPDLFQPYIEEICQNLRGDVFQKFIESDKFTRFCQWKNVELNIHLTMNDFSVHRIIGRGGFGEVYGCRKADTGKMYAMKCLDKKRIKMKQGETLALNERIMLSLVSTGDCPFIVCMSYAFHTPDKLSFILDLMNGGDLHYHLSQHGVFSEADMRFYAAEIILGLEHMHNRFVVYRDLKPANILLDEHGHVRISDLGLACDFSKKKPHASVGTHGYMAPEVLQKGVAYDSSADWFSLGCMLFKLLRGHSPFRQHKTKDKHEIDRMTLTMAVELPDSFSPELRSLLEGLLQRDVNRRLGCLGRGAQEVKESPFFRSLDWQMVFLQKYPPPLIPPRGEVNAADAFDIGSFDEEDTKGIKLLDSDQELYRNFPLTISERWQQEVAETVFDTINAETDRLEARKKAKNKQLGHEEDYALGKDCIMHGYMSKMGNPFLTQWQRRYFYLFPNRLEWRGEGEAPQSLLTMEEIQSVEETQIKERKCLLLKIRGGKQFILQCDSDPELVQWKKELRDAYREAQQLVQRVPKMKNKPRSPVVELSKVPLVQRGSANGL

[3] = target: GSK3B (Homo sapiens, UniProt P49841); conditions: read-out: %Inh GSK3B
Chain of GSK3B (P49841 whole entry): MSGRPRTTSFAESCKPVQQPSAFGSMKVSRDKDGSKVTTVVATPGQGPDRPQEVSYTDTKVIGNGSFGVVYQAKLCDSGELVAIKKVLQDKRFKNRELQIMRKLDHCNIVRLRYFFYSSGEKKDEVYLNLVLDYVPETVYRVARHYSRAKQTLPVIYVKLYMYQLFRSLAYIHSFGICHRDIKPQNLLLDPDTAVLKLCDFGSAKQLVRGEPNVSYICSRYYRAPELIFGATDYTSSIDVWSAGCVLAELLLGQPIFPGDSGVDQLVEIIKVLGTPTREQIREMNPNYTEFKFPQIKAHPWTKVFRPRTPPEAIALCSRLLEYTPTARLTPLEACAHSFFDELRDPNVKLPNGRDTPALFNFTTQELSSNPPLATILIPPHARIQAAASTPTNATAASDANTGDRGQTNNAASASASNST

[4] = target: FGFR3 (Homo sapiens, UniProt P22607); conditions: read-out: %Inh FGFR3
Chain of FGFR3 (P22607 23-806): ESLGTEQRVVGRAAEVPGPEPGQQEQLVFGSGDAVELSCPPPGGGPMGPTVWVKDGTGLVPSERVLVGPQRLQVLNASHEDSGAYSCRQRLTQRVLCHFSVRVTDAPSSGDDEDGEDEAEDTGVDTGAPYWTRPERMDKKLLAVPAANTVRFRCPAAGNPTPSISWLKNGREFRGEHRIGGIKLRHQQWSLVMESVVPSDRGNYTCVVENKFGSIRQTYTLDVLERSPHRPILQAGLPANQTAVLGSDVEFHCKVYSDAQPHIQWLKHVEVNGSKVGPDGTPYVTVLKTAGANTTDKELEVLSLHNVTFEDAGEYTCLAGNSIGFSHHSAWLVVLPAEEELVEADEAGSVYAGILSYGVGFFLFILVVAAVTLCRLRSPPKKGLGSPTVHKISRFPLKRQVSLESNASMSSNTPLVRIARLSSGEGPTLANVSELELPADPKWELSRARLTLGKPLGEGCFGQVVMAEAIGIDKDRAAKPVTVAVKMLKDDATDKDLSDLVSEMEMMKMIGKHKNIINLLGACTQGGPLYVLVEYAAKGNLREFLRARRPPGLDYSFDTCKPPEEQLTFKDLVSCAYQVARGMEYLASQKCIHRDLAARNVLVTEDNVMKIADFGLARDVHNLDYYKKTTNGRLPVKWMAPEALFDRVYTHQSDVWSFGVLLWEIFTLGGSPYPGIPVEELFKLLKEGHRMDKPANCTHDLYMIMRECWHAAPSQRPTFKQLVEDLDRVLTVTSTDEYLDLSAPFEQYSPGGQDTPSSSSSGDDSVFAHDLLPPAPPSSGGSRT

[5] = target: CDK9 (Homo sapiens, UniProt P50750); conditions: read-out: %Inh CDK9
Chain of CDK9 (P50750 whole entry): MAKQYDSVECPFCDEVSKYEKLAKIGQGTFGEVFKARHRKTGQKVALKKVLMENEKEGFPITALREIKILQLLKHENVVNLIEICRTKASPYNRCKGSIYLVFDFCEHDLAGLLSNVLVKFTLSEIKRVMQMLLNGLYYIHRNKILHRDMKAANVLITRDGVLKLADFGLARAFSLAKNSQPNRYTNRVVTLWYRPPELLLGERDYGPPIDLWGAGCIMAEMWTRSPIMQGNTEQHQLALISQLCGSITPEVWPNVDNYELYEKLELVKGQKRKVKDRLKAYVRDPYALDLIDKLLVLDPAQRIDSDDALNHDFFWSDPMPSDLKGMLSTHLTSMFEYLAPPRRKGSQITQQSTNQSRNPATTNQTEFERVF

[6] = target: T2, ERK8 (Homo sapiens, UniProt Q8TD08); conditions: read-out: %Inh ERK8
T2 sequence (Q8TD08 1-544): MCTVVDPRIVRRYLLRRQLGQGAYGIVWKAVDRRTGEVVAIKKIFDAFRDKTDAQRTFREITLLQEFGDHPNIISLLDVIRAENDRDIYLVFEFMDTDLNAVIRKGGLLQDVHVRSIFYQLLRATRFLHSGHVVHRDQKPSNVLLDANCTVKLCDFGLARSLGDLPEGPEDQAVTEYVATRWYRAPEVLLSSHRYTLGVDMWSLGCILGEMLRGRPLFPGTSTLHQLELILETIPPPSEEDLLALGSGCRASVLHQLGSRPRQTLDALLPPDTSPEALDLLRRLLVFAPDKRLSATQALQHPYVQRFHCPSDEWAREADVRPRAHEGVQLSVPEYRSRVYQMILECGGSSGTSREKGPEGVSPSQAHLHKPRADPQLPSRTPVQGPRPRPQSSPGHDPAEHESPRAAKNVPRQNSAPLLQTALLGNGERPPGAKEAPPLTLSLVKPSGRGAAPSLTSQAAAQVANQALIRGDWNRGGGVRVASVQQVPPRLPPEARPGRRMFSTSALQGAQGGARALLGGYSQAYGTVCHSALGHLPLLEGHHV

[7] = target: BTK (Homo sapiens, UniProt Q06187); conditions: read-out: %Inh BTK
Chain of BTK (Q06187 whole entry): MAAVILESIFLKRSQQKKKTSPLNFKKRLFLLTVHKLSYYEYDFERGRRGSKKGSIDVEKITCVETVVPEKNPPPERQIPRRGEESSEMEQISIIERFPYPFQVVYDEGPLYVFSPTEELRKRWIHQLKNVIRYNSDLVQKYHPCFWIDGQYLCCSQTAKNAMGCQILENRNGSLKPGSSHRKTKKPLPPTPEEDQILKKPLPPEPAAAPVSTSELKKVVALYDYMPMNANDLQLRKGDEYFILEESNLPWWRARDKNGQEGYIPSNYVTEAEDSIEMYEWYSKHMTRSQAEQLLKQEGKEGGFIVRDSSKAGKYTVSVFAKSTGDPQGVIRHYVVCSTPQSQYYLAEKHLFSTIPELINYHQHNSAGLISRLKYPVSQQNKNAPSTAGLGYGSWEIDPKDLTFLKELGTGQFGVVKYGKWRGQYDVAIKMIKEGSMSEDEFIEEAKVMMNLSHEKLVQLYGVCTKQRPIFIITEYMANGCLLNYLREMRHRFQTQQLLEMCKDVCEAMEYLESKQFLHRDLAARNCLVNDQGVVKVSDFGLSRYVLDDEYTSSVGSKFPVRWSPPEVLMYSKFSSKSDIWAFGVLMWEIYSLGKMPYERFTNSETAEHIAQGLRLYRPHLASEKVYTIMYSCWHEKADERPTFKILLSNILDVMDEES

[8] = target: DDR1 (Homo sapiens, UniProt Q08345); conditions: read-out: %Inh DDR1
Chain of DDR1 (Q08345 19-913): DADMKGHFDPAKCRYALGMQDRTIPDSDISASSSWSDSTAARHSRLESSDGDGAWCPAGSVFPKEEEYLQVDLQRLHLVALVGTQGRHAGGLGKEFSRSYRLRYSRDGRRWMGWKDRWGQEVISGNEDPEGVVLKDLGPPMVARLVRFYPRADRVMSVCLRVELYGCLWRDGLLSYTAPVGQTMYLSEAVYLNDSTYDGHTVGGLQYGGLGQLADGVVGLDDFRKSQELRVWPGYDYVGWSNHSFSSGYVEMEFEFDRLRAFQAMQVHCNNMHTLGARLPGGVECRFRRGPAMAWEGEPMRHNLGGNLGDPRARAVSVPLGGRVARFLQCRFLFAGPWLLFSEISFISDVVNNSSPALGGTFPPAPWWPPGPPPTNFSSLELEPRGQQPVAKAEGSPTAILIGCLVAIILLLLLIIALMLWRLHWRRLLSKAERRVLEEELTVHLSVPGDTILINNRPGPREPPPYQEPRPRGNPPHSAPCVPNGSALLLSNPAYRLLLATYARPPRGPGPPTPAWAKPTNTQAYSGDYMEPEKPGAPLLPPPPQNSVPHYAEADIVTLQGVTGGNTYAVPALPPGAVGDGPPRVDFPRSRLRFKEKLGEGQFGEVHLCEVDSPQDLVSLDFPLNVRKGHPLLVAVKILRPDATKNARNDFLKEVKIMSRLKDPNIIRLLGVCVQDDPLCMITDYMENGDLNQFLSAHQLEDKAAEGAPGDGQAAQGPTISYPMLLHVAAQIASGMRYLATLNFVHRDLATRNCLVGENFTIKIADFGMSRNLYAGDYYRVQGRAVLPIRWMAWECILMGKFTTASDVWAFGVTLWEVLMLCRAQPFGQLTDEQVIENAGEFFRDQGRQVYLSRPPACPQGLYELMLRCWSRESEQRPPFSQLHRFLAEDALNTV

[9] = target: T3, EPHB1 (Homo sapiens, UniProt P54762); conditions: read-out: %Inh EPHB1
T3 sequence (P54762 18-984): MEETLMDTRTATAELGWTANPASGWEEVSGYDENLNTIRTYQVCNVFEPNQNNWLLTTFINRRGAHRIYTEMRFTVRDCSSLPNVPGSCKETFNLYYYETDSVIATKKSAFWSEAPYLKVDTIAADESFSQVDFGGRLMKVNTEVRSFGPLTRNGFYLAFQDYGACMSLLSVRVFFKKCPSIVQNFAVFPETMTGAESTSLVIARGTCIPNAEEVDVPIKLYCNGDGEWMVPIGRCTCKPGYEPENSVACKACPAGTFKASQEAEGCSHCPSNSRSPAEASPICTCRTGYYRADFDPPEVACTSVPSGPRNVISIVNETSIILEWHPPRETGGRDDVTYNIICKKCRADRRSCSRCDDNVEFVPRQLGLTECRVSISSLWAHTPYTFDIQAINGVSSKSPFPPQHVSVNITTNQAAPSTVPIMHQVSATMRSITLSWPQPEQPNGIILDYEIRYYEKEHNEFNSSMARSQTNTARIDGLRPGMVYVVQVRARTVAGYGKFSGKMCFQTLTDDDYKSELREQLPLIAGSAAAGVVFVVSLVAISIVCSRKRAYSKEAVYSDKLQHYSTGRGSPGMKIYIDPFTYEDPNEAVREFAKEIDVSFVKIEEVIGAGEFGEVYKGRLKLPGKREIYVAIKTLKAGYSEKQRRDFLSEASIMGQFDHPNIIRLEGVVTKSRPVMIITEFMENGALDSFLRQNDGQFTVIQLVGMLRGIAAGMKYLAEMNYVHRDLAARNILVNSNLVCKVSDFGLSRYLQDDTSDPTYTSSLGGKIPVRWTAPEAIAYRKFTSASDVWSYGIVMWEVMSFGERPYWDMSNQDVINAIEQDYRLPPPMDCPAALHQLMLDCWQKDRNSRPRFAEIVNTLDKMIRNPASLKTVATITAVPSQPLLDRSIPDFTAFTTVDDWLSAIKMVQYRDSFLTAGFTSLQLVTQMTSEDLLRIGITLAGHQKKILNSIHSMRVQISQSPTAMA

Chain of CDC2L1 (P21127 whole entry): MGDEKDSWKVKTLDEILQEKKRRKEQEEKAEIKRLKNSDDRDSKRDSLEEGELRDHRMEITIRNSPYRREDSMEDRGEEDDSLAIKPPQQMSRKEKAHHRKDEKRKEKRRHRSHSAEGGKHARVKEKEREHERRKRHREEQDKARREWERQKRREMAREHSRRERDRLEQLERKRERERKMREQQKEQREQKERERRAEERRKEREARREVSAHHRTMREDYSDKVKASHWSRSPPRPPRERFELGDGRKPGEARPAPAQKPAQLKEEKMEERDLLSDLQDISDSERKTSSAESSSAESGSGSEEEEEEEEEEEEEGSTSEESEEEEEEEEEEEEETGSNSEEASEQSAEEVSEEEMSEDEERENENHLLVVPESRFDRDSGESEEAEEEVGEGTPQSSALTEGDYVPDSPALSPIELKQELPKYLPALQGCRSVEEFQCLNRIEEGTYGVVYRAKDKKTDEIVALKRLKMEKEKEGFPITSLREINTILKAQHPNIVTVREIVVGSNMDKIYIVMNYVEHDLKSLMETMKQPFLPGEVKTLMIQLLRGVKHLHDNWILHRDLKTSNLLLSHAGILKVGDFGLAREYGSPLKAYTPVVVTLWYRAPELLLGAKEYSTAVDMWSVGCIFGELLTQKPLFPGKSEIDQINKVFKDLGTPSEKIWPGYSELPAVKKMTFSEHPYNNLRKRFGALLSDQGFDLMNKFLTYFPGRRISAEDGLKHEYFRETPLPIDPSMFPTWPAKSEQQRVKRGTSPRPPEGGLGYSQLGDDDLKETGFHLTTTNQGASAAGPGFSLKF

Row | SMILES | inhibition at 1 µM [1] [%] | inhibition at 1 µM [2] [%] | inhibition at 1 µM [3] [%] | inhibition at 1 µM [4] [%] | inhibition at 1 µM [5] [%] | inhibition at 1 µM [6] [%] | inhibition at 1 µM [7] [%] | inhibition at 1 µM [8] [%] | inhibition at 1 µM [9] [%]
1 | Cn1cc(-c2cnc(N)c3c(-c4ccc5c(c4)CCN5C(=O)Cc4ccccc4)csc23)cn1 [UNC10225012A] | 4 | 0 | 0 | 49 | 0 | 11 | 0 | 97.7 | 6
2 | O=c1cc(N2CCOCC2)nc2n(Cc3cccc(Cl)c3Cl)c(C3CC3)nn12 [UNC10225469A] | 0 | 0 | 0 | 0 | 0 | 13 | 0 | 21 | 0
3 | COc1cccc(OC)c1C(=O)Nc1cccc(-c2nn3ccccc3c2-c2ccnc(Nc3cccc(F)c3)n2)c1 [UNC10225310A] | 0 | 0 | 0 | 0 | 0 | 3 | 0 | 99.3 | 100
4 | CS(=O)(=O)Cc1ccc(Nc2nccc(-c3c(-c4cccc(NC(=O)C5CCCCC5)c4)nn4ncccc34)n2)cc1 [UNC10225159A] | 0 | 44 | 20 | 16 | 0 | 0 | 0 | 96.6 | 2
5 | Cc1ccc(NC(=O)Nc2cccc(C(F)(F)F)c2)cc1 [UNC10225187A] | 3 | 0 | 0 | 5 | 0 | 0 | 0 | 43 | 5
